Experimental data published in ChEMBL document CHEMBL1201862, “PubChem BioAssay data set” (2004).
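Briefly, cells in 96-well plates were exposed to five compound concentrations for 48 h, and endpoints were estimated by linear interpolation. The concentration for 50% growth inhibition is given as GI50.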 Activity calls are given as the source filed them. No stated cut-off is given here; in the data, active = GI50 up to about 1.1 µM and inactive = higher.

Tests used:
Assay in all cases: growth of human tumour cells (NCI), 48 h
CCRF-CEM = test system: CCRF-CEM
SW-620 = test system: SW-620
NCI-H23 = test system: NCI-H23
MOLT-4 = test system: MOLT-4
EKVX = test system: EKVX
HL-60 = test system: HL-60
SF-539 = test system: SF-539
OVCAR-8 = test system: OVCAR-8
OVCAR-3 = test system: OVCAR-3
SR = test system: SR
A549 = test system: A549
SNB-75 = test system: SNB-75
SK-OV-3 = test system: SK-OV-3
IGROV-1 = test system: IGROV-1
HOP-92 = test system: HOP-92
HCC 2998 = test system: HCC 2998
PC-3 = test system: PC-3
MCF7 = test system: MCF7
NCI/ADR-RES = test system: NCI/ADR-RES

Measured: GI50

CCOC(=O)C1C(c2ccc(Cl)cc2Cl)NC(c2ccc(C)cc2)C(C(=O)OC)S1(=O)=O (stereo unspecified)
inactive: CCRF-CEM > 100 µM | SW-620 > 100 µM | NCI-H23 66.8 µM | MOLT-4 5.46 µM | EKVX 85.9 µM | HL-60 55.8 µM | SF-539 > 100 µM | OVCAR-8 > 100 µM | OVCAR-3 > 100 µM | SR 69 µM | A549 37.8 µM | SNB-75 20.1 µM | SK-OV-3 > 100 µM | IGROV-1 > 100 µM | HOP-92 12 µM | HCC 2998 > 100 µM

COC(=O)c1onc(C2OC(C)(C)OC2C(O)COC(c2ccccc2)(c2ccccc2)c2ccccc2)c1C(=O)OC (stereo unspecified)
inactive: CCRF-CEM > 100 µM | SW-620 > 100 µM | NCI-H23 72.3 µM | MOLT-4 29.4 µM | EKVX 41.9 µM | HL-60 > 100 µM | PC-3 44.7 µM | SF-539 > 100 µM | OVCAR-8 > 100 µM | OVCAR-3 87.5 µM | SR 84.3 µM | MCF7 > 100 µM | A549 > 100 µM | HOP-92 > 100 µM | HCC 2998 > 100 µM

C#CC(C)(C)Oc1cc(O)c2c(=O)c3ccccc3n(C)c2c1
inactive: CCRF-CEM 45.2 µM | NCI-H23 > 100 µM | MOLT-4 > 100 µM | EKVX > 100 µM | HL-60 > 100 µM | SF-539 15.5 µM | OVCAR-8 35.8 µM | OVCAR-3 > 100 µM | SR 17.3 µM | A549 > 100 µM | SNB-75 40.4 µM | SK-OV-3 > 100 µM | IGROV-1 > 100 µM | HOP-92 > 100 µM | HCC 2998 77.4 µM

O=C(NCCCCCCCCCCCCNC(=O)c1cccc2ccccc12)c1cccc2ccccc12
inactive: CCRF-CEM > 56.2 µM | SW-620 > 67.5 µM | NCI-H23 > 64.1 µM | MOLT-4 > 100 µM | EKVX > 62.8 µM | HL-60 31.3 µM | SF-539 1.66 µM | OVCAR-8 31.5 µM | OVCAR-3 > 45.9 µM | SR 47 µM | A549 > 68.5 µM | SNB-75 26.1 µM | SK-OV-3 > 47.5 µM | IGROV-1 > 55.3 µM | HOP-92 > 52.2 µM | HCC 2998 > 100 µM

N#Cc1cccc2c1Nc1ccccc1S2
inactive: CCRF-CEM > 100 µM | SW-620 > 100 µM | NCI-H23 > 100 µM | MOLT-4 > 100 µM | EKVX > 100 µM | HL-60 > 100 µM | SF-539 46.7 µM | OVCAR-8 79.3 µM | OVCAR-3 > 100 µM | SR > 100 µM | A549 > 100 µM | SNB-75 19.7 µM | SK-OV-3 > 100 µM | IGROV-1 48.9 µM | HOP-92 20.2 µM | HCC 2998 > 100 µM

Cc1ccc(S(=O)(=O)NC(=O)C#CCOC2CCCCO2)cc1 (stereo unspecified)
inactive: CCRF-CEM > 100 µM | SW-620 > 100 µM | NCI-H23 > 100 µM | MOLT-4 > 100 µM | EKVX > 100 µM | HL-60 > 100 µM | SF-539 > 100 µM | OVCAR-8 > 100 µM | OVCAR-3 > 100 µM | SR > 100 µM | A549 > 100 µM | SNB-75 > 100 µM | HOP-92 > 100 µM | HCC 2998 > 100 µM

Cc1ccc2c(c1)Nc1cc(C(F)(F)F)ccc1[PH]2=O (stereo unspecified)
inactive: CCRF-CEM 14.9 µM | SW-620 23.4 µM | NCI/ADR-RES 67.1 µM | NCI-H23 22.2 µM | MOLT-4 11 µM | EKVX 3.78 µM | HL-60 29.3 µM | PC-3 21.7 µM | SF-539 21.8 µM | OVCAR-8 63.5 µM | OVCAR-3 30 µM | SR 37.4 µM | MCF7 9.59 µM | A549 30.4 µM | SNB-75 11.8 µM | SK-OV-3 65.2 µM | IGROV-1 25.9 µM | HOP-92 14.2 µM | HCC 2998 44.6 µM

COc1cc(Nc2cnc3cc(C(F)(F)F)ccc3n2)cc(OC)c1OC
inactive: CCRF-CEM > 100 µM | SW-620 > 100 µM | NCI-H23 > 100 µM | MOLT-4 > 100 µM | EKVX > 100 µM | HL-60 > 100 µM | SF-539 > 100 µM | OVCAR-8 > 100 µM | OVCAR-3 > 100 µM | SR > 100 µM | A549 > 100 µM | SNB-75 > 100 µM | SK-OV-3 > 100 µM | HOP-92 > 100 µM | HCC 2998 > 100 µM

CC1=C(C(=O)NCc2ccccc2)C(/C=C/c2ccccc2)C(C(=O)NCc2ccccc2)=C(C)N1
inactive: CCRF-CEM > 100 µM | SW-620 > 100 µM | NCI-H23 > 100 µM | MOLT-4 > 100 µM | EKVX > 100 µM | HL-60 > 100 µM | SF-539 > 100 µM | OVCAR-8 > 100 µM | OVCAR-3 > 100 µM | SR > 100 µM | A549 > 100 µM | SNB-75 85.9 µM | IGROV-1 > 100 µM | HOP-92 > 100 µM | HCC 2998 > 100 µM
